Patent US20050118228A1, “Compositions and methods for augmentation or repair of intervertebral discs” (priority 2003, published 2005)

Test system: Adult human keratinocytes
Experiment: Telomerase expression (TRAP assay kit) in treated keratinocytes
Assay type: cell-based
Settings: keratinocytes exposed to both agents in sequence: 10-25 μM 5-aza-2′-deoxycytidine for 5 days and 100-250 ng/ml trichostatin for 1 day; versus cells not exposed
Description: Adult human keratinocytes are obtained form Clonetics (San Diego, Calif.) and grown in Keratinocyte Growth Media in 5-10% CO2 at 37 degree C. according to the instructions “Keratinocyte System Instructions” BioWhittaker Catalogue number AA-1000. When the adult keratinocytes are about 40-80% confluent, 10-25 μM 5-aza-2′-deoxycytidine (Sigma, St Louis, Mo.) is added to the culture. After 4 days of incubation with 5-aza-2′-deoxycytidine, 100-250 ng/ml trichostatin (Sigma, St Louis, Mo.) is added to the culture. The culture is incubated for an additional day and sampled for telomerase activity.
Keratinocytes exposed to 10-25 μM 5-aza-2′-deoxycytidine for 5 days and 100-250 ng/ml trichostatin for 1 day and cells not exposed to these agents are assayed for the expression of telomerase (using a commercially available TRAP assay kit). These cells are assayed along side positive controls (HeLa and NH-12 cells) and negative controls (human foreskin fibroblasts and heated HN-12 cell extracts). Telomerase activity is measured by phosphoimaging telomeric products resolved on 12.5% […]. Telometric ladders indicative of telomerase activity, consistent with the presence of stem cells is observed in the positive controls and in the keratinocytes exposed to 10-25 μM 5-aza-2′-deoxycytidine for 5 days and 100-250 ng/ml trichostatin for 1 day.

Telomerase activity (telomeric ladders) | SMILES
increased telomerase activity | CC(/C=C/C(=O)NO)=C\[C@@H](C)C(=O)c1ccc(N(C)C)cc1 [trichostatin]
increased telomerase activity | Nc1ncn([C@H]2C[C@H](O)[C@@H](CO)O2)c(=O)n1 [5-aza-2′-deoxycytidine]
